Our source for the IC50 and AUC values is ChEMBL document CHEMBL1143444, “Dual EGFR/ErbB-2 inhibitors from novel pyrrolidinyl-acetylenic thieno[3,2-d]pyrimidines” (Bioorg Med Chem Lett, 2008).

A value given as a limit tells only on which side of the number the result lay.

The subject of one series is HN5. The series is described as follows: Antiproliferative activity against human HN5 cells overexpressing EGFR after 3 days by methylene blue staining. The note with it: HN5, 72 h.
A further series relates to BT-474. The series is described as follows: Antiproliferative activity against human BT474 cells overexpressing ErbB2 after 3 days by methylene blue staining. The note with it: BT-474, 72 h.
Another series relates to Mus musculus. The series is described as follows: Dose normalized AUC in po dosed mouse. The series is classed as ADME, organism-based. The settings on record: in vivo.
Series [1] can be described thus: Antiproliferative activity against human foreskin fibroblast after 3 days by methylene blue staining. The note with it: 72 h.
Series [2] addresses Epidermal growth factor receptor (Homo sapiens, UniProt P00533). The series is described as follows: Inhibition of EGFR kinase.
Series [3] addresses Receptor tyrosine-protein kinase erbB-2 (Homo sapiens, UniProt P04626).
Description: Inhibition of ErbB2 kinase

Chain of Receptor tyrosine-protein kinase erbB-2 (P04626 whole entry): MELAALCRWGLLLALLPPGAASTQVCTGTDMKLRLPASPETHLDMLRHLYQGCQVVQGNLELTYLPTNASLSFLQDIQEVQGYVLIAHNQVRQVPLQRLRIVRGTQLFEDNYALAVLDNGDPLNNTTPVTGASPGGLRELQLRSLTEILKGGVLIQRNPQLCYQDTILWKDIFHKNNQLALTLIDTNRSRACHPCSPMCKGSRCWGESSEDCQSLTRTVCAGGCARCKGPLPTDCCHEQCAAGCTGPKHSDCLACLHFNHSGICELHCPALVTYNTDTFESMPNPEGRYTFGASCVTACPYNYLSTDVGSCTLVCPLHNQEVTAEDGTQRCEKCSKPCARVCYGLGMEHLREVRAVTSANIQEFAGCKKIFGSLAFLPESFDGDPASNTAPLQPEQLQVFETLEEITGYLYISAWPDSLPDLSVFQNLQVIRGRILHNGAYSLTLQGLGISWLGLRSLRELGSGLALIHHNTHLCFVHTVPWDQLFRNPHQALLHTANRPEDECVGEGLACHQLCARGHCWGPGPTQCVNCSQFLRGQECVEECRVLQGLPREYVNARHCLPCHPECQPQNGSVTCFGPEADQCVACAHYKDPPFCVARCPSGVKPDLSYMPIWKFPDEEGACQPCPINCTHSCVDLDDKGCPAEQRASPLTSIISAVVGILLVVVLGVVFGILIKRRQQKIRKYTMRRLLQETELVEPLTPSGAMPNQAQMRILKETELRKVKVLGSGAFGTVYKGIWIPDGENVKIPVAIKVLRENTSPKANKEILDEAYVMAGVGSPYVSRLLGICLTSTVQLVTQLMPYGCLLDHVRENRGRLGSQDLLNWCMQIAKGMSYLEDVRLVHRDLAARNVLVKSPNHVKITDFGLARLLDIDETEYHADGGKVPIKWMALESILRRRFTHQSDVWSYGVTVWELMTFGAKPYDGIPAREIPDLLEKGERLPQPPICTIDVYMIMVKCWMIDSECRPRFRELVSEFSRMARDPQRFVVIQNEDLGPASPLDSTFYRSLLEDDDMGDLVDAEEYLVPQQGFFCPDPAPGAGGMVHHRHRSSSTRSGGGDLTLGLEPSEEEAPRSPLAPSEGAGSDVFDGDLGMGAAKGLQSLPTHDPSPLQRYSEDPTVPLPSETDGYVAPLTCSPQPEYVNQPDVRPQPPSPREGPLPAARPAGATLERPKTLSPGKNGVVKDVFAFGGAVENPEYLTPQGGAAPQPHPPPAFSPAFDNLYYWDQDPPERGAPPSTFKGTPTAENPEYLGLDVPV
Chain of Epidermal growth factor receptor (P00533 whole entry): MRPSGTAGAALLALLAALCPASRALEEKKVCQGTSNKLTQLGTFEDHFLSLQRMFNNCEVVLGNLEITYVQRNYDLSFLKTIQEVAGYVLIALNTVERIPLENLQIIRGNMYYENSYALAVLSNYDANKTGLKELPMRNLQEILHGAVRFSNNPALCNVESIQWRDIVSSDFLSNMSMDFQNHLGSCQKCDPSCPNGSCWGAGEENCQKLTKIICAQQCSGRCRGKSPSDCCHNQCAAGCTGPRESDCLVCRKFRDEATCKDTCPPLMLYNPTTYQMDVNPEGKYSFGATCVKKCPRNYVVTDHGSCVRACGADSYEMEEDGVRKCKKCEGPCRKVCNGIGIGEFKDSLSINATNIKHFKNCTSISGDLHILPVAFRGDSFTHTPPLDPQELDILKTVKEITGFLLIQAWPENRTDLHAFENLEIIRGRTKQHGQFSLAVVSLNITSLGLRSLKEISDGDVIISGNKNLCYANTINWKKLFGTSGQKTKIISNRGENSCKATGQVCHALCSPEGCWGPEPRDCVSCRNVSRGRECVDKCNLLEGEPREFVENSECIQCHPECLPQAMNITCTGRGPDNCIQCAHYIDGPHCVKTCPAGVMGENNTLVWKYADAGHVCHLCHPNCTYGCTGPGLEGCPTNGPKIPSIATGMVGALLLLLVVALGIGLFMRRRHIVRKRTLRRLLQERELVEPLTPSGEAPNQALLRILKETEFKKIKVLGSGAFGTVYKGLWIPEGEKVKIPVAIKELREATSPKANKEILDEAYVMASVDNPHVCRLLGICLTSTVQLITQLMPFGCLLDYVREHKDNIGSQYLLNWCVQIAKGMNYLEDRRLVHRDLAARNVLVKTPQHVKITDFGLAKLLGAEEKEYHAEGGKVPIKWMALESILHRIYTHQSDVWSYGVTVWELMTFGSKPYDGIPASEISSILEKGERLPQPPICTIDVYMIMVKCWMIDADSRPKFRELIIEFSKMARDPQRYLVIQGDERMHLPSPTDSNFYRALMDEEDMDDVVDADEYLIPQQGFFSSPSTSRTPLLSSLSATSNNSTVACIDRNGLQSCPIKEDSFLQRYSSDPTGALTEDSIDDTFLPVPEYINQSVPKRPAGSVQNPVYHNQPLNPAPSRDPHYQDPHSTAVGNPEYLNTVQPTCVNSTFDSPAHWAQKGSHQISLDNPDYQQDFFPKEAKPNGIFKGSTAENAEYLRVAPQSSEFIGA

As usually defined, the IC50 is the point on the concentration scale where inhibition reaches its midpoint. Read a low IC50 as higher potency. `CNC(=O)O[C@H]1CN[C@H](C#Cc2cc3ncnc(Nc4ccc(OCc5cccc(F)c5)c(Cl)c4)c3s2)C1`: the IC50 in the series with HN5 was 58 nM; in the series on BT-474, 28 nM; in series [1], over 1000 nM; in series [2], 50 nM; in series [3], 20 nM. This molecule also yielded an AUC in the series on Mus musculus of 18 ng·kg·h/mg/mL.

For the molecule `CS(=O)(=O)N1CCC[C@@H]1C#Cc1cc2ncnc(Nc3ccc(OCc4cccc(F)c4)c(Cl)c3)c2s1`, the IC50 with HN5 was 550 nM; in the series with BT-474, 650 nM; in series [1] it was over 1000 nM; in series [2] it was 120 nM; in series [3], 88 nM.

Consider `CC(=O)N1CCC[C@@H]1C#Cc1cc2ncnc(Nc3ccc(OCc4cccc(F)c4)c(Cl)c3)c2s1`, for which the IC50 in the series on HN5 was 37 nM; with BT-474, 670 nM; in series [1] it was over 1000 nM; in series [2] it was 58 nM; in series [3], 38 nM.

`Fc1cccc(COc2ccc(Nc3ncnc4cc(C#C[C@@H]5CCCN5)sc34)cc2Cl)c1`: the IC50 in the series on HN5 is 536 nM; with BT-474, 205 nM; in series [1] it was over 1000 nM; in series [2] it was 109 nM; in series [3], 54 nM.

`Fc1cccc(COc2ccc(Nc3ncnc4cc(C#C[C@H]5CCCN5)sc34)cc2Cl)c1`: the IC50 is 238 nM in the series on HN5, 94 nM in the series on BT-474 and over 1000 nM in series [1].

For `CCO[C@H]1CN[C@H](C#Cc2cc3ncnc(Nc4ccc(OCc5cccc(F)c5)c(Cl)c4)c3s2)C1`, the IC50 in the series on HN5 was 99 nM; in the series with BT-474, 45 nM; in series [1], over 1000 nM; in series [2], 115 nM; in series [3] it was 98 nM.

For `COC(=O)N1CCC[C@@H]1C#Cc1cc2ncnc(Nc3ccc(OCc4cccc(F)c4)c(Cl)c3)c2s1`, the IC50 with HN5 is 590 nM; with BT-474 it was 1700 nM; in series [1] it was over 1000 nM; in series [2], 140 nM; in series [3], 120 nM.

In the case of `O[C@H]1CN[C@H](C#Cc2cc3ncnc(Nc4ccc(OCc5cccc(F)c5)c(Cl)c4)c3s2)C1`, the IC50 was 39 nM with BT-474, over 1000 nM in series [1] and 11 nM in series [3]. Also, in the series on Mus musculus, the AUC came to 9 ng·kg·h/mg/mL.

Turning to `CS(=O)(=O)O[C@H]1CN[C@H](C#Cc2cc3ncnc(Nc4ccc(OCc5cccc(F)c5)c(Cl)c4)c3s2)C1`, the IC50 with HN5 is 380 nM; with BT-474 it was 86 nM; in series [1], over 1000 nM; in series [2], 81 nM; in series [3] it was 40 nM.

As to `CCC(=O)O[C@H]1CN[C@H](C#Cc2cc3ncnc(Nc4ccc(OCc5cccc(F)c5)c(Cl)c4)c3s2)C1`, the IC50 was 52 nM in the series on HN5; 18 nM in the series with BT-474; over 1000 nM in series [1]; 63 nM in series [2]; 90 nM in series [3].

With `CCOC(=O)O[C@H]1CN[C@H](C#Cc2cc3ncnc(Nc4ccc(OCc5cccc(F)c5)c(Cl)c4)c3s2)C1`, the IC50 in the series on HN5 was 200 nM; in the series with BT-474 it was 34 nM; in series [1], over 1000 nM; in series [2] it was 141 nM; in series [3] it was 135 nM.

For `CCS(=O)(=O)N[C@H]1CN[C@H](C#Cc2cc3ncnc(Nc4ccc(OCc5cccc(F)c5)c(Cl)c4)c3s2)C1`, the IC50 in the series with HN5 was 127 nM; in the series with BT-474 it was 42 nM; in series [1], over 1000 nM; in series [2] it was 50 nM.

For the molecule `COCCN1CCC[C@@H]1C#Cc1cc2ncnc(Nc3ccc(OCc4cccc(F)c4)c(Cl)c3)c2s1`, the IC50 in the series with HN5 is 190 nM; in series [1], over 1000 nM; in series [2], 130 nM.

Consider `CCOC(=O)N[C@H]1CN[C@H](C#Cc2cc3ncnc(Nc4ccc(OCc5cccc(F)c5)c(Cl)c4)c3s2)C1`, for which the IC50 in the series with HN5 was 113 nM; in the series with BT-474, 40 nM; in series [1], over 1000 nM; in series [2] it was 60 nM; in series [3], 78 nM.

As to `CN(C)C(=O)O[C@H]1CN[C@H](C#Cc2cc3ncnc(Nc4ccc(OCc5cccc(F)c5)c(Cl)c4)c3s2)C1` [GSK-182497A], the IC50 in the series with BT-474 is 30 nM; in series [1], over 1000 nM.

For `CCNC(=O)O[C@H]1CN[C@H](C#Cc2cc3ncnc(Nc4ccc(OCc5cccc(F)c5)c(Cl)c4)c3s2)C1` [GSK-192082A], the IC50 with HN5 is 95 nM; with BT-474 it was 30 nM; in series [1], over 1000 nM; in series [2], 32 nM. The AUC in the series with Mus musculus amounted to 61 ng·kg·h/mg/mL.

As for `O=C(O[C@H]1CN[C@H](C#Cc2cc3ncnc(Nc4ccc(OCc5cccc(F)c5)c(Cl)c4)c3s2)C1)N1CCOCC1` [GW869810X], the IC50 is 30 nM with BT-474 and over 1000 nM in series [1].
